Data published in paper PMC12563520, “Asiatic Acid from Centella asiatica as a Potent EGFR Tyrosine Kinase Inhibitor with Anticancer Activity in NSCLC Cells Harboring Wild-Type and T790M-Mutated EGFR” (Biomolecules, 2025).
Read-outs that look alike come from different tables or passages of the source.

Assays:
H1975 cells [1] = assay: MTT cell viability assay, H1975; type: cell-based; conditions: Homo sapiens, NCI-H1975
Experimental: (§1) Cells were seeded in a 96-well plate at 1,500 cells/well and incubated at 37 °C for 24 h. After incubation, the culture medium was replaced with fresh medium containing various concentrations of asiatic acid. Cells treated with 0.8% (v/v) DMSO served as the vehicle control. After 72 h, cells were incubated with 100 μL of MTT solution (0.5 mg/mL in PBS) for 4 h at 37 °C. The solution was then removed, 100 μL of DMSO was added, and the plate was protected from light with gentle agitation for 15 min. Absorbance was recorded at 540 nm using a Sunrise microplate reader (Tecan Group Ltd., Männedorf, Switzerland).

H1975 cells [2] = assay: Annexin V/PI apoptosis assay by flow cytometry, H1975; type: cell-based, human; conditions: 24 h
Experimental: Cells were plated in a 6-well plate at a density of 200,000 cells/well and allowed to adhere overnight at 37 °C. The following day, cells were treated with increasing concentrations of asiatic acid for 24 h. […] After treatment, cells were harvested by trypsinization and centrifugation. […] Propidium iodide (PI; P3566; Invitrogen^TM, Waltham, MA, USA) was then added, and apoptotic populations were analyzed using a BD FACSCalibur flow cytometer (BD Biosciences, Heidelberg, Germany).

[3] = target: T1, p-EGFR (Tyr1068) in A549 cells (Homo sapiens, UniProt P00533); assay: Western blot of p-EGFR, EGF-stimulated A549; type: cell-based; conditions: for p-EGFR expression (fold), Mean: A549, EGF-stimulated (+), vs DMSO (+)
T1 construct: endogenous in cells; host or cells: A549
Experimental: (§2) Cells were plated at 200,000 cells/well in a 6-well plate and allowed to adhere for 24 h. They were then treated with the tested compound at varying concentrations for 24 h. For A549 cells, treatment was performed in serum-free medium for 24 h, followed by stimulation with 100 ng/mL human EGF for 10 min prior to harvesting. Cells were harvested by trypsinization, lysed in RIPA buffer [50 mM Tris-HCl (pH 7.4), 150 mM NaCl, 1% NP-40, 1% Na-deoxycholate, and 0.1% SDS] with protease and phosphatase inhibitors, and incubated on ice for 30 min. Lysates were centrifuged, and protein concentration was determined using the Bradford assay. Equal amounts (30 μg) were separated by 10% SDS-PAGE and transferred to a […] membrane (Immobilon®-P, Merck Millipore, Burlington, MA, USA). The membrane was blocked with 5% skim milk in 1X TBST and incubated overnight at 4 °C with primary antibodies (Table S2) diluted 1:1000 in 1% skim milk-TBST or 1% BSA-TBST. After washing, membranes were incubated at room temperature for 1 h with secondary antibodies—goat anti-Rabbit IgG or goat anti-Mouse IgG (Invitrogen, Waltham, MA, USA)—diluted 1:2000. Protein signals were detected using Luminata^TM Crescendo Western HRP Substrate (Merck Millipore) and imaged with an ImageQuant 800 system (GE Healthcare Bio-Sciences, Uppsala, Sweden). The auto exposure mode was selected to automatically adjust the exposure time to prevent image saturation. The detected signal was quantified using Image Studio Lite (version 5.2, LICORbio^TM, Lincoln, NE, USA).

[4] = test system: p-ERK (Thr202/Tyr204) in A549 cells; assay: Western blot of p-ERK, A549; type: cell-based, human; conditions: for p-ERK expression (fold), Mean: 24 h, vs DMSO
Experimental: as §2

A549 cells [5] = assay: MTT cell viability assay, A549; type: cell-based; conditions: Homo sapiens, 72 h, mean ± SEM (n = 3)
Experimental: as §1

[6] = test system: p-Akt (Ser473) in H1975 cells; assay: Western blot of p-Akt, H1975; type: cell-based, human; conditions: for p-Akt expression (fold), Mean: 24 h, vs DMSO
Experimental: as §2

[7] = test system: cleaved PARP (Asp214) in A549 cells; assay: Western blot of cleaved PARP, A549; type: cell-based, human; conditions: for cleaved PARP expression (fold), Mean: 24 h, vs 0 μM
Experimental: as §2

wild-type EGFR = target: T2, wild-type EGFR (Homo sapiens, UniProt P00533); assay: ADP-Glo kinase assay, wild-type EGFR; type: biochemical; conditions: mean ± SEM (n = 3), read-out: IC50 kinase inhibition, Wild-Type EGFR
T2 construct: purchased Sigma-Aldrich SRP0239

[8] = test system: p-ERK (Thr202/Tyr204) in H1975 cells; assay: Western blot of p-ERK, H1975; type: cell-based, human; conditions: for p-ERK expression (fold), Mean: 24 h, vs DMSO
Experimental: as §2

L858R/T790M EGFR = target: T3, L858R/T790M EGFR (Homo sapiens, UniProt P00533, L858R/T790M); assay: ADP-Glo kinase assay, double-mutant EGFR; type: biochemical; conditions: mean ± SEM (n = 3), read-out: IC50 kinase inhibition, L858R/T790M EGFR
T3 construct: purchased Sigma-Aldrich SRP0242
Experimental: The EGFR inhibitory activity of the tested compound was measured using the ADP-Glo^TM assay (Promega, WI, USA) according to a previous study [28]. […] For the positive control, 2 μL of DMSO was added in place of the tested compound. For the negative control, the EGFR enzyme was omitted and replaced with 5 μL of 1X kinase buffer. The plate was protected from light and incubated at room temperature for 1 h, followed by the addition of 5 μL ADP-Glo^TM reagent and a further 40-min incubation. To convert ADP to ATP, 10 μL of kinase detection reagent was added, followed by a 30-min incubation under the same conditions. ATP levels were then measured using a Varioskan LUX multimode microplate reader (Thermo Fisher Scientific, Waltham, MA, USA), and percent inhibition was calculated using Equation (1).(1) Inhibition activity %=positive − negative−sample −negative/positive−negative ×100
The IC50 of each compound was calculated using GraphPad Prism software (version 8.0.2, GraphPad Software, Inc., Boston, MA, USA).

[9] = test system: p-Akt (Ser473) in A549 cells; assay: Western blot of p-Akt, A549; type: cell-based, human; conditions: for p-Akt expression (fold), Mean: 24 h, vs DMSO
Experimental: as §2

[10] = test system: cleaved PARP (Asp214) in H1975 cells; assay: Western blot of cleaved PARP, H1975; type: cell-based, human; conditions: for cleaved PARP expression (fold), Mean: 24 h, vs 0 μM
Experimental: as §2

[11] = test system: BEAS-2B normal lung epithelial cells; assay: MTT cell viability assay, BEAS-2B; type: cell-based, human
Experimental: as §1

[12] = target: T4, EGFR protein in A549 cells (Homo sapiens, UniProt P00533); assay: Cellular thermal shift assay (CETSA); type: binding; conditions: A549 cell lysates, 100 μM, 1 hour, heated at 40–60 °C, n = 2
T4 construct: endogenous in cells; host or cells: A549
Experimental: Figure S9. The cellular thermal shift assay. The stability of EGFR protein in A549 cells was assessed by treating cell lysates with either 0.2% DMSO or 100 μM asiatic acid for 1 hour. Following treatment, samples were heated at 40–60 °C for 3 minutes, rapidly cooled on ice for 10 minutes, and then centrifuged at 12,000 rpm at 4 °C for 30 minutes.
The supernatants were analyzed by Western blot, and relative band intensities were plotted against the corresponding heating temperatures. Data are expressed as mean ± […]
(1 picture or pasted object on this page, not shown here)

[13] = target: fibroblast growth factor receptor (FGFR); assay: FGFR kinase inhibition (selectivity); type: biochemical
[14] = target: T5, p-EGFR (Tyr1068) in H1975 cells (Homo sapiens, UniProt P00533, L858R/T790M); assay: Western blot of p-EGFR, H1975; type: cell-based; conditions: H1975, 6.25–50 μM, dose-dependent
T5 construct: endogenous in cells; host or cells: H1975
Experimental: as §2, with “After washing, membranes were incubated at room temperature for 1 h with secondary antibodies—goat anti-Rabbit IgG or goat anti-Mouse IgG (Invitrogen, Waltham, MA, USA)—diluted 1:2000.” left out, “The auto exposure mode was selected to automatically adjust the exposure time to prevent image saturation.” left out

A549 cells [15] = assay: Annexin V/PI apoptosis assay by flow cytometry, A549; type: cell-based, human; conditions: 24 h
Experimental: Cells were plated in a 6-well plate at a density of 200,000 cells/well and allowed to adhere overnight at 37 °C. The following day, cells were treated with increasing concentrations of asiatic acid for 24 h. […] After treatment, cells were harvested by trypsinization and centrifugation. The cell pellets were stained with FITC-conjugated Annexin V (640945; BioLegend, San Diego, CA, USA) and incubated for 30 min at room temperature in the dark. Propidium iodide (PI; P3566; Invitrogen^TM, Waltham, MA, USA) was then added, and apoptotic populations were analyzed using a BD FACSCalibur flow cytometer (BD Biosciences, Heidelberg, Germany).

[16] = A549, 100 μM, listed as AS-PN005

C=CC(=O)Nc1cc(Nc2nccc(-c3cn(C)c4ccccc34)n2)c(OC)cc1N(C)CCN(C)C [Osimertinib]
viability at 3.125 µM (H1975 cells [1]; H1975, 3.125 μM, n = 3): 61.5%
viability at 6.25 µM (H1975 cells [1]; H1975, 6.25 μM, n = 3): 44.8%
viability at 12.5 µM (H1975 cells [1]; H1975, 12.5 μM, n = 3): 23.8%
viability at 25 µM (H1975 cells [1]; H1975, 25 μM, n = 3): 12.1%
viability at 50 µM (H1975 cells [1]; H1975, 50 μM, n = 3): 7.89%
viability at 100 µM (H1975 cells [1]; H1975, 100 μM, n = 3, read-out: Cell viability (%) Mean): 0.43%
IC50 (H1975 cells [1]; Table S1, n = 3, read-out: IC50 (μM) Mean, H1975 cell viability): 4.14 µM
increase of apoptosis compared to the untreated group (H1975 cells [2]; H1975, 5 μM): threefold

C[C@H]1[C@H](C)CC[C@]2(C(=O)O)CC[C@]3(C)C(=CC[C@@H]4[C@@]5(C)C[C@@H](O)[C@H](O)[C@@](C)(CO)[C@@H]5CC[C@]43C)[C@H]12 [Asiatic acid, asiatic acid]
EGF-induced EGFR phosphorylation, in words ([3]; A549, 12.5–100 μM, concentration-dependent): significantly inhibited
p-EGFR expression (fold), Mean ([3]; 12.5 μM): 0.75 fold
p-EGFR expression (fold), Mean ([3]; 25 μM): 0.40 fold
p-EGFR expression (fold), Mean ([3]; 50 μM): 0.36 fold
p-EGFR expression (fold), Mean ([3]; 100 μM): 0.21 fold
p-ERK expression (fold), Mean ([4]; A549, 12.5 μM): 0.427 fold
p-ERK expression (fold), Mean ([4]; A549, 25 μM): 0.402 fold
p-ERK expression (fold), Mean ([4]; A549, 50 μM): 0.294 fold
p-ERK expression (fold), Mean ([4]; A549, 100 μM): reducing these proteins more than erlotinib
p-ERK expression (fold), Mean [4, 16]: 0.103 fold
p-ERK levels compared to the vehicle control, in words ([4]; A549, 12.5–100 μM): significantly decreased
IC50 (A549 cells [5]): 64.5 ± 2.49 µM
IC50 (H1975 cells [1]; H1975, MTT, 72 h, mean ± SEM (n = 3), read-out: IC50 cell viability): 36.6 ± 0.86 µM
viability at 100 µM (H1975 cells [1]; H1975, concentrations of ≥100 μM, read-out: cell viability): < 40%
p-Akt expression (fold), Mean ([6]; H1975, 6.25 μM): 0.747 fold
p-Akt expression (fold), Mean ([6]; H1975, 12.5 μM): 0.696 fold
p-Akt expression (fold), Mean ([6]; H1975, 25 μM): 0.605 fold
p-Akt expression (fold), Mean ([6]; H1975, 50 μM): 0.423 fold
p-Akt level, in words ([6]; H1975, 6.25–50 μM, p < 0.0001): significant, dose-dependent decrease
cleaved PARP expression (fold), Mean ([7]; A549, 25 μM): 3.12 fold
cleaved PARP expression (fold), Mean ([7]; A549, 50 μM): 4.42 fold
cleaved PARP expression (fold), Mean ([7]; A549, 100 μM): 6.86 fold
cleaved PARP (Asp214) levels, in words ([7]; A549, 25–100 μM, p < 0.0001): significant, concentration-dependent increase
IC50 (wild-type EGFR): 0.035 ± 0.002 nM
p-ERK expression (fold), Mean ([8]; H1975, 6.25 μM): 0.755 fold
p-ERK expression (fold), Mean ([8]; H1975, 12.5 μM): 0.636 fold
p-ERK expression (fold), Mean ([8]; H1975, 25 μM): 0.566 fold
p-ERK expression (fold), Mean ([8]; H1975, 50 μM): 0.458 fold
p-ERK level, in words ([8]; H1975, 6.25–50 μM, p < 0.0001): significant, dose-dependent decrease
IC50 (L858R/T790M EGFR): 0.000348 ± 5.5e-05 µM
p-Akt expression (fold), Mean ([9]; A549, 12.5 μM): 0.454 fold
p-Akt expression (fold), Mean ([9]; A549, 25 μM): 0.393 fold
p-Akt expression (fold), Mean ([9]; A549, 50 μM): 0.336 fold
p-Akt expression (fold), Mean ([9]; A549, 100 μM): reducing these proteins more than erlotinib
p-Akt expression (fold), Mean [9, 16]: 0.147 fold
p-Akt levels compared to the vehicle control, in words ([9]; A549, 12.5–100 μM): significantly decreased
cleaved PARP expression (fold), Mean ([10]; H1975, 12.5 μM): 7.26 fold
cleaved PARP expression (fold), Mean ([10]; H1975, 25 μM): 9.99 fold
cleaved PARP expression (fold), Mean ([10]; H1975, 50 μM): 14.15 fold
cleaved PARP expression, in words ([10]; H1975, 12.5–50 μM, p < 0.0001): significantly elevated
IC50 ([11]; Homo sapiens, BEAS-2B, 72 h, mean ± SEM (n = 3)): 184 ± 5.38 µM
cytotoxicity in BEAS-2B cells ([11]; concentrations ≤100 μM (12.5–100 μM)): no notable cytotoxicity
thermal stability of EGFR protein (CETSA) [12]: markedly enhanced the stability
IC50 ([13]; Figure S8): 0.000471 µM
selectivity for EGFR over FGFR ([13]; ratio of kinase IC50 values): approximately 13.5 fold
p-EGFR levels, in words [14]: significantly reduced
increase of apoptotic cell population relative to DMSO-treated group (A549 cells [15]; A549, 100 μM): approximately threefold
increase of apoptotic cell population relative to DMSO-treated group (H1975 cells [2]; H1975, 50 μM): about twofold

C#Cc1cccc(Nc2ncnc3cc(OCCOC)c(OCCOC)cc23)c1 [Erlotinib, reference compound]
increase of apoptosis compared to the untreated group (A549 cells [15]; A549, 10 μM): approximately twofold
